Reference: ChEMBL document CHEMBL1151025, “Synthesis and influenza neuraminidase inhibitory activity of aromatic analogues of sialic acid” (Bioorg Med Chem Lett, 1995)

Key:
[1] = Compound was tested for Inhibition of influenza A [influenza A/Shandong/09/93 (H3N2)] neuraminidase; set-up: species or system Influenza A virus
[2] = tested on: MDCK; test: Inhibitory activity against Influenza virus in MDCK cells; type: functional, cell-based; details: Canis lupus familiaris

Row | Compound | IC50 [1] | Ki [1] | EC50 [2]
1 | CC(=O)Nc1c(NC(=N)N)cc(C(=O)O)cc1[C@H](O)[C@H](O)CO | > 100000 nM | > 100000 nM | –
2 | CC(=O)N[C@H]1[C@H]([C@H](O)[C@H](O)CO)OC(C(=O)O)=C[C@@H]1NC(=N)N [ZANAMIVIR] | 5 nM | 1 nM | 40 nM
